Experiments:
Y. enterocolitica = assay: Bacterial inactivation in Ringer's solution, colony agar plate count; type: cell-based; conditions: 100 μM, RT, 1 h treatment
Procedure: (§1) A panel of G+F and G-bacteria were inactivated in their respective growth medium using compound VI, compound X, and compound XIV. All cells were grown in corresponding media to middle log phase, collected by centrifugation, re-suspended in Ringer's solution (RS), and treated at RT with 100 μM of compound VI, compound X, and compound XIV, which were added to the suspension as 100× concentrate in RS. Controls received RS only. At the end of the incubation, unreacted compound VI, compound X, and compound XIV were neutralized with 10 mM sodium thiophosphate during incubation at RT for 30 min. The viable cells were enumerated using serial dilutions by standard colony agar plate count. Table 1 summarizes the typical results of 1 h treatment of E. coli, P. fluorescens, Y. enterocolitica, B. cereus, S. aureus, and S. epidermidis with compound VI, compound X, and compound XIV.

P. fluorescens = assay: as above; type: cell-based; conditions: 100 μM, RT, 1 h treatment
Procedure: as §1

B. cereus = assay: as above; type: cell-based; conditions: 100 μM, RT, 1 h treatment
Procedure: as §1

S. epidermidis = assay: as above; type: cell-based; conditions: 100 μM, RT, 1 h treatment
Procedure: as §1

E. coli = assay: as above; type: cell-based; conditions: 100 μM, RT, 1 h treatment
Procedure: as §1

S. aureus = assay: as above; type: cell-based; conditions: 100 μM, RT, 1 h treatment
Procedure: as §1

[1] = test system: Plasmodium falciparum 3D7; assay: Inactivation of blood-borne parasites in fresh human red blood cells; type: cell-based; conditions: 250 μM, 24 hours, physiological temperature
Procedure: (§2) Inactivation of blood-borne parasites, Plasmodium falciparum 3D7 and Babesia divergens Rouen, was conducted in fresh human red blood cells for 24 hours at physiological temperature. […] Above six logs inactivation of Candida albicans, a representative of pathogenic fungi, and three logs inactivation of Tetrahymena thermophila, a model organism for ciliated protozoa, were achieved by compound XIV at 250 μM in their respective growth media.

Babesia divergens Rouen = assay: as above; type: cell-based; conditions: 250 μM, 24 hours, physiological temperature
Procedure: as §2

Candida albicans = assay: Fungal inactivation in growth media; type: cell-based; conditions: 250 μM
Procedure: as §2

[2] = test system: Human respiratory syncytial virus (RSV); assay: Viral inactivation, modified plaque assay; type: cell-based; conditions: 6 h, Ringer's/Lactate solution
Procedure: Human respiratory syncytial virus (RSV) was inactivated by using Compound VI or Compound X. For that purpose, sucrose gradient-purified virus was treated with 100 μM of Compound VI and Compound X at RT. […] The virus titers were determined using standard 10× serial dilutions in a modified plaque assay. For mock-treated virus no significant changes in RSV infectivity were found even after 6 h incubation at RT (in different experiments, the reduction of titers were in the range of 0.11-0.36 Login PFU/mL).
Inactivation of RSV with different concentrations of Compound XVI at RT and 40° C. was performed as described in Example 9.

[3] = Neutralization of compound X by ethyl 2-mercaptoacetate (LCMS); type: physicochemical; conditions: PBS, RT; for Peak Areas (LCMS): 100 μM X + 10 mM ethyl 2-mercaptoacetate
Procedure: 100 μM solution of compound X in phosphate buffered saline was incubated at room temperature with 10 mM of ethyl-2-mercaptoacetate, and the change of the concentration of compound X, as well as the formation of the intermediate compound of neutralization (XXI) and the final compound of neutralization XXII was determined by LCMS analysis of the mixture. The reaction scheme of neutralization is presented below. The peak areas of compound X, intermediate neutralization product, Q1 (compound XXI) and final neutralization product, Q2 (compound XXII) are presented in the Table 8 below, and in FIG. 18.

Compound	Peak Areas (LCMS) ([3]; Time 6 min)	Peak Areas (LCMS) ([3]; Time 14.5 min)	Peak Areas (LCMS) ([3]; Time 23.1 min)	Peak Areas (LCMS) ([3]; Time 31.6 min)	Peak Areas (LCMS) ([3]; Time 40.2 min)	Peak Areas (LCMS) ([3]; Time 48.7 min)	Peak Areas (LCMS) ([3]; Time 57.3 min)	Peak Areas (LCMS) ([3]; Time 65.8 min)	Peak Areas (LCMS) ([3]; Time 74.3 min)	Peak Areas (LCMS) ([3]; Time 82.9 min)	Peak Areas (LCMS) ([3]; Time 91.4 min)	Peak Areas (LCMS) ([3]; Time 100.0 min)	Peak Areas (LCMS) ([3]; Time 108.5 min)	Peak Areas (LCMS) ([3]; Time 117.1 min)	Peak Areas (LCMS) ([3]; Time 125.6 min)	also measured
CN(CCCCN(C)CCCN(C)CCCN1CC1)CCCN(C)CCCN1CC1 [Compound XIV]	–	–	–	–	–	–	–	–	–	–	–	–	–	–	–	Titer (Y. enterocolitica): 5.04 Log10CFU/mL; Titer (P. fluorescens): ≤1.00 Log10CFU/mL; Titer (B. cereus): ≤1.00 Log10CFU/mL; Titer (S. epidermidis): 6.32 Log10CFU/mL; Titer (E. coli): 3.51 Log10CFU/mL; Titer (S. aureus): 5.08 Log10CFU/mL; reduction of the number of viable plasmodium organisms [1]: ≥ 7 logs; reduction of the number of viable babesia (Babesia divergens Rouen): 8 logs; inactivation of Candida albicans (Candida albicans): Above six
CN(CCCN1CC1)CCCN1CC1 [Compound XVI, 3-(aziridin-1-yl)-N-(3-(aziridin-1-yl)propyl)-N-methylpropan-1-amine]	–	–	–	–	–	–	–	–	–	–	–	–	–	–	–	RSV Inactivation (difference between TO titer and titer) ([2]; 40° C., 100 μM): >6.48 Log10 PFU/mL; RSV titer ([2]; 40° C., 100 μM): <0.52 Log10 PFU/mL; RSV Inactivation (difference between TO titer and titer) ([2]; 40° C., 250 μM): >6.48 Log10 PFU/mL; RSV titer ([2]; 40° C., 250 μM): <0.52 Log10 PFU/mL; RSV Inactivation (difference between TO titer and titer) ([2]; 40° C., 500 μM): >6.48 Log10 PFU/mL; RSV titer ([2]; 40° C., 500 μM): <0.52 Log10 PFU/mL; RSV Inactivation (difference between TO titer and titer) ([2]; RT, 100 μM): 5.02 Log10 PFU/mL; RSV titer ([2]; RT, 100 μM): 1.98 Log10 PFU/mL; RSV Inactivation (difference between TO titer and titer) ([2]; RT, 250 μM): 5.50 Log10 PFU/mL; RSV titer ([2]; RT, 250 μM): 1.50 Log10 PFU/mL; RSV Inactivation (difference between TO titer and titer) ([2]; RT, 500 μM): >6.48 Log10 PFU/mL; RSV titer ([2]; RT, 500 μM): <0.52 Log10 PFU/mL
CCOC(=O)CSCCNCCCN(C)CCCCN(C)CCCN(C)CCCNCCSCC(=O)OCC [XXII]	48.7	131.9	214.4	280.7	349.3	397.1	424.3	479.4	489.3	498.6	513.2	527	520.5	548.8	536.5	–
CCOC(=O)CSCCNCCCN(C)CCCN(C)CCCCN(C)CCCN1CC1 [XXI]	181.6	307	363.5	375.8	390.1	368.5	338.6	331.1	306.5	268.6	256	227.8	202.2	195	174	first order rate constant of concentration decrease ([3]; 10 mM ethyl 2-mercaptoacetate): 0.026 min⁻¹

— patent US20250127168A1, “METHOD FOR PATHOGENS, MICROORGANISMS, AND PARASITES INACTIVATION” (New York Blood Center, Inc., priority 2018, published 2025)
